From patent publication US9718817B2, “Aryl and heteroaryl ether compounds as ROR gamma modulators” (Glenmark Pharmaceuticals S.A., priority 2014, dated 2017)

Target: T1, GST-tagged ROR gamma ligand binding domain (LBD) (Homo sapiens, UniProt P51449)
T1 construct: purchased Invitrogen
T1 sequence (P51449 269-508 limits assumed): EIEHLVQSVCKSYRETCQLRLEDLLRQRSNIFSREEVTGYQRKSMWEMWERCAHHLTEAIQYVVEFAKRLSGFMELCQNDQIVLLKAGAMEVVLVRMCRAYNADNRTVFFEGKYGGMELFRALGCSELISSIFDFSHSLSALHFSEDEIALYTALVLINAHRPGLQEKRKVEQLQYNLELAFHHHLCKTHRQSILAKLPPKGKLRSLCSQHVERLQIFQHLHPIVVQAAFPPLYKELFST
Assay: TR-FRET assay for ROR gamma (LanthaScreen co-activator peptide recruitment)
Format: biochemical
Conditions: for IC50: class symbols, from dose response curve; for inhibition at 1 µM: compound 1 μM; for inhibition at 1 µM / inhibition at 10 µM: TR-FRET ratio 520/495, percent of control; for inhibition at 10 µM: compound 10 μM
Summary of the method: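 Antagonist mode: 10 nM GST-RORγ LBD pre-incubated with compound 1 h at 22 °C in 25 mM HEPES pH 7.4, 100 mM NaCl, 5 mM DTT, 0.01% BSA, 4% DMSO final. Then 300 nM fluorescein-D22 co-activator peptide plus 10 nM Tb-anti-GST added, 1 h at room temperature. IC50 by nonlinear regression of the 520/495 TR-FRET ratio as percent of no-compound control.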

SMILES: CCS(=O)(=O)c1ccc(CC(=O)Nc2ccc(C#CC(C)(C)Oc3ccc(F)cc3F)cc2)cc1 [Example 69, N-{4-[3-(2,4-Difluoro-phenoxy)-3-methyl-but-1-yn-1-yl]-phenyl}-2-(4-ethanesulfonyl-phenyl)-acetamide]
- IC50: 50 to 100 nM
- inhibition at 1 µM: 71.6%
- inhibition at 10 µM: 81.8%

SMILES: CCS(=O)(=O)c1ccc(CC(=O)Nc2ccc(C#CC(C)(C)Oc3ccc(F)c(F)c3)cc2)cc1 [Example 70, N-{4-[3-(3,4-Difluoro-phenoxy)-3-methyl-but-1-yn-1-yl]-phenyl}-2-(4-ethanesulfonyl-phenyl)-acetamide]
- IC50: < 50 nM
- inhibition at 1 µM: 77.7%
- inhibition at 10 µM: 81.3%

SMILES: CCS(=O)(=O)c1ccc(CC(=O)Nc2ccc(C#CC(C)(C)Oc3cc(F)c(F)c(F)c3)cc2)cc1 [Example 71, 2-(4-Ethanesulfonyl-phenyl)-N-{4-[3-methyl-3-(3,4,5-trifluoro-phenoxy)-but-1-yn-1-yl]-phenyl}-acetamide]
- IC50: < 50 nM
- inhibition at 1 µM: 75.9%
- inhibition at 10 µM: 79.9%

SMILES: CCS(=O)(=O)c1ccc(CC(=O)Nc2ccc(C#CC(C)(C)Oc3ccc(F)c(F)c3F)cc2)cc1 [Example 72, 2-(4-Ethanesulfonyl-phenyl)-N-{4-[3-methyl-3-(2,3,4-trifluoro-phenoxy)-but-1-yn-1-yl]-phenyl}-acetamide]
- IC50: < 50 nM
- inhibition at 1 µM: 76.2%
- inhibition at 10 µM: 79.7%

SMILES: CCS(=O)(=O)c1ccc(CC(=O)Nc2ccc(C#CC(C)(C)Oc3c(F)cc(F)cc3F)cc2)cc1 [Example 73, 2-(4-Ethanesulfonyl-phenyl)-N-{4-[3-methyl-3-(2,4,6-trifluoro-phenoxy)-but-1-yn-1-yl]-phenyl}-acetamide]
- IC50: < 50 nM
- inhibition at 1 µM: 75.4%
- inhibition at 10 µM: 78.6%

SMILES: CCS(=O)(=O)c1ccc(CC(=O)Nc2ccc(C#CC(C)(C)Oc3cc(F)c(F)cc3F)cc2)cc1 [Example 74, 2-(4-Ethanesulfonyl-phenyl)-N-{4-[3-methyl-3-(2,4,5-trifluoro-phenoxy)-but-1-yn-1-yl]-phenyl}-acetamide]
- IC50: < 50 nM
- inhibition at 1 µM: 73.6%
- inhibition at 10 µM: 78.8%

SMILES: CCS(=O)(=O)c1ccc(CC(=O)Nc2ccc(C#CC(C)(C)Oc3c(F)cc(Cl)cc3F)cc2)cc1 [Example 75, N-{4-[3-(4-Chloro-2,6-difluoro-phenoxy)-3-methyl-but-1-yn-1-yl]-phenyl}-2-(4-ethanesulfonyl-phenyl)-acetamide]
- IC50: < 50 nM
- inhibition at 1 µM: 83.2%
- inhibition at 10 µM: 84%

SMILES: CCS(=O)(=O)c1ccc(CC(=O)Nc2ccc(C#CC(C)(C)Oc3ccc(C(F)(F)F)cc3)cc2)cc1 [Example 76, 2-(4-Ethanesulfonyl-phenyl)-N-{4-[3-methyl-3-(4-trifluoromethyl-phenoxy)-but-1-yn-1-yl]-phenyl}-acetamide]
- IC50: < 50 nM
- inhibition at 1 µM: 82.2%
- inhibition at 10 µM: 86.2%

SMILES: CCS(=O)(=O)c1ccc(CC(=O)Nc2ccc(C#CC(C)(C)Oc3ccc(OC(F)(F)F)cc3)cc2)cc1 [Example 77, 2-(4-Ethanesulfonyl-phenyl)-N-{4-[3-methyl-3-(4-trifluoromethoxy-phenoxy)-but-1-yn-1-yl]-phenyl}-acetamide]
- IC50: < 50 nM
- inhibition at 1 µM: 82.8%
- inhibition at 10 µM: 87.1%

SMILES: CCS(=O)(=O)c1ccc(CC(=O)Nc2ccc(C#CC(C)(C)Oc3ccc(OC(F)F)cc3)cc2)cc1 [Example 78, N-{4-[3-(4-Difluoromethoxy-phenoxy)-3-methyl-but-1-yn-1-yl]-phenyl}-2-(4-ethanesulfonyl-phenyl)-acetamide]
- IC50: < 50 nM
- inhibition at 1 µM: 85.2%
- inhibition at 10 µM: 87.4%

SMILES: CCS(=O)(=O)c1ccc(CC(=O)Nc2ccc(C#CC(C)(C)Oc3ccc(C#N)cc3)cc2)cc1 [Example 79, N-{4-[3-(4-Cyano-phenoxy)-3-methyl-but-1-yn-1-yl]-phenyl}-2-(4-ethanesulfonyl-phenyl)-acetamide]
- IC50: < 50 nM
- inhibition at 1 µM: 79.9%
- inhibition at 10 µM: 86.1%

SMILES: CCS(=O)(=O)c1ccc(CC(=O)Nc2ccc(C#CC(C)(C)Oc3ccc(Cl)cc3F)nc2)cc1 [Example 80, N-{6-[3-(4-Chloro-2-fluoro-phenoxy)-3-methyl-but-1-yn-1-yl]-pyridin-3-yl}-2-(4-ethanesulfonyl-phenyl)-acetamide]
- inhibition at 1 µM: 50.2%
- inhibition at 10 µM: 62.4%

SMILES: CCS(=O)(=O)c1ccc(CC(=O)Nc2ccc3c(c2)nc(C(C)(C)Oc2ccc(C(F)(F)F)cc2)n3C)cc1 [Example 81, 2-[4-(Ethylsulfonyl)phenyl]-N-(1-methyl-2-{2-[4-(trifluoromethyl)phenoxy]propan-2-yl}-1H-benzimidazol-5-yl)acetamide]
- IC50: > 100 nM
- inhibition at 1 µM: 76%
- inhibition at 10 µM: 88.9%

SMILES: CCS(=O)(=O)c1ccc(CC(=O)Nc2ccc3c(c2)nc(C(C)(C)Oc2ccc(F)c(F)c2)n3C)cc1 [Example 82, N-{2-[2-(3,4-Difluorophenoxy)propan-2-yl]-1-methyl-1H-benzimidazol-5-yl}-2-[4-(ethylsulfonyl)phenyl]acetamide]
- IC50: 50 to 100 nM
- inhibition at 1 µM: 82%
- inhibition at 10 µM: 88.4%

SMILES: CCS(=O)(=O)c1ccc(CC(=O)Nc2ccc3c(c2)nc(C(C)(C)Oc2ccc(Cl)cc2F)n3C)cc1 [Example 83, N-{2-[1-(4-Chloro-2-fluoro-phenoxy)-1-methyl-ethyl]-1-methyl-1H-benzoimidazol-5-yl}-2-(4-ethanesulfonyl-phenyl)-acetamide]
- IC50: 50 to 100 nM
- inhibition at 1 µM: 83.3%
- inhibition at 10 µM: 92%

SMILES: CCS(=O)(=O)c1ccc(CC(=O)Nc2ccc3c(c2)nc(C(C)(C)Oc2ccc(Cl)cc2Cl)n3C)cc1 [Example 84, N-{2-[2-(2,4-Dichlorophenoxy)propan-2-yl]-1-methyl-1H-benzimidazol-5-yl}-2-[4-(ethylsulfonyl)phenyl]acetamide]
- IC50: < 50 nM
- inhibition at 1 µM: 89.7%
- inhibition at 10 µM: 90.2%

SMILES: CCS(=O)(=O)c1ccc(CC(=O)Nc2ccc3c(c2)nc(C(C)(C)Oc2ccc(Cl)c(Cl)c2)n3C)cc1 [Example 85, N-{2-[2-(3,4-Dichlorophenoxy)propan-2-yl]-1-methyl-1H-benzimidazol-5-yl}-2-[4-(ethylsulfonyl)phenyl]acetamide]
- IC50: < 50 nM
- inhibition at 1 µM: 87.1%
- inhibition at 10 µM: 91.2%

SMILES: CCn1c(C(C)(C)Oc2ccc(Cl)cc2F)nc2cc(NC(=O)Cc3ccc(S(=O)(=O)CC)cc3)ccc21 [Example 86, N-{2-[2-(4-Chloro-2-fluorophenoxy)propan-2-yl]-1-ethyl-1H-benzimidazol-5-yl}-2-[4-(ethylsulfonyl)phenyl]acetamide]
- IC50: < 50 nM
- inhibition at 1 µM: 92.8%
- inhibition at 10 µM: 93.8%

SMILES: CCn1c(C(C)(C)Oc2ccc(Cl)c(F)c2)nc2cc(NC(=O)Cc3ccc(S(=O)(=O)CC)cc3)ccc21 [Example 87, N-{2-[1-(4-Chloro-3-fluoro-phenoxy)-1-methyl-ethyl]-1-ethyl-1H-benzoimidazol-5-yl}-2-(4-ethanesulfonyl-phenyl)-acetamide]
- IC50: < 50 nM
- inhibition at 1 µM: 90.8%
- inhibition at 10 µM: 94.8%

SMILES: CCn1c(C(C)(C)Oc2ccc(F)cc2F)nc2cc(NC(=O)Cc3ccc(S(=O)(=O)CC)cc3)ccc21 [Example 88, N-{2-[1-(2,4-Difluoro-phenoxy)-1-methyl-ethyl]-1-ethyl-1H-benzoimidazol-5-yl}-2-(4-ethanesulfonyl-phenyl)-acetamide]
- IC50: < 50 nM
- inhibition at 1 µM: 86.2%
- inhibition at 10 µM: 96.1%

SMILES: CCn1c(C(C)(C)Oc2ccc(F)c(F)c2)nc2cc(NC(=O)Cc3ccc(S(=O)(=O)CC)cc3)ccc21 [Example 89, N-{2-[1-(3,4-Difluoro-phenoxy)-1-methyl-ethyl]-1-ethyl-1H-benzoimidazol-5-yl}-2-(4-ethanesulfonyl-phenyl)-acetamide]
- IC50: < 50 nM
- inhibition at 1 µM: 86.5%
- inhibition at 10 µM: 95.5%

SMILES: CCn1c(C(C)(C)Oc2c(F)cc(F)cc2F)nc2cc(NC(=O)Cc3ccc(S(=O)(=O)CC)cc3)ccc21 [Example 90, 2-(4-Ethanesulfonyl-phenyl)-N-{1-ethyl-2-[1-methyl-1-(2,4,6-trifluoro-phenoxy)-ethyl]-1H-benzoimidazol-5-yl}-acetamide]
- IC50: < 50 nM
- inhibition at 1 µM: 87.3%
- inhibition at 10 µM: 88.8%

SMILES: CCn1c(C(C)(C)Oc2ccc(F)c(F)c2F)nc2cc(NC(=O)Cc3ccc(S(=O)(=O)CC)cc3)ccc21 [Example 91, 2-(4-Ethanesulfonyl-phenyl)-N-{1-ethyl-2-[1-methyl-1-(2,3,4-trifluoro-phenoxy)-ethyl]-1H-benzoimidazol-5-yl}-acetamide]
- IC50: < 50 nM
- inhibition at 1 µM: 90%
- inhibition at 10 µM: 90.6%

SMILES: CCn1c(C(C)(C)Oc2cc(F)c(F)cc2F)nc2cc(NC(=O)Cc3ccc(S(=O)(=O)CC)cc3)ccc21 [Example 92, 2-(4-Ethanesulfonyl-phenyl)-N-{1-ethyl-2-[1-methyl-1-(2,4,5-trifluoro-phenoxy)-ethyl]-1H-benzoimidazol-5-yl}-acetamide]
- IC50: < 50 nM
- inhibition at 1 µM: 91.5%
- inhibition at 10 µM: 93.1%

SMILES: CCn1c(C(C)(C)Oc2ccc(Cl)cc2)nc2cc(NC(=O)Cc3ccc(S(=O)(=O)CC)cc3)ccc21 [Example 93, N-{2-[1-(4-Chloro-phenoxy)-1-methyl-ethyl]-1-ethyl-1H-benzoimidazol-5-yl}-2-(4-ethanesulfonyl-phenyl)-acetamide]
- IC50: < 50 nM
- inhibition at 1 µM: 83.4%
- inhibition at 10 µM: 87.4%
